Source: patent US20230278972A1, “SUBSTITUTED HALOALKYL SULFONANILIDE HERBICIDES” (FMC Corporation, priority 2020, published 2023)

Key:
Format in all cases: in vivo
[1] = system: blackgrass (Alopecurus myosuroides); test: Test A1 preemergence, blackgrass
In short: (§1)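 Pre: seeds in loam/sand blend, directed soil spray. Post: potted plants, same soil, 2–10 cm, 1–2 leaf stage. Chemicals in non-phytotoxic solvent + surfactant for both.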

corn (Zea mays) [2] = test: Test A1 preemergence, corn
In short: (§2)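 Postemergence species (ragweed, Palmer pigweed, wild oat) were sprayed at one- to two-leaf stage, 2 to 10 cm tall. Corn was treated preemergence by directed soil spray. Both used a loam soil/sand blend and compounds in a non-phytotoxic solvent mixture with surfactant.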

[3] = system: Foxtail, Giant (giant foxtail, Setaria faberi); test: Test A1 preemergence, Foxtail, Giant; settings: 0 to 100 scale (0 no effect, 100 complete control)
In short: as §1

[4] = system: goosegrass (Eleusine indica); test: Test A1 preemergence, goosegrass; settings: 0 to 100 scale (0 no effect, 100 complete control)
In short: as §1

kochia (Bassia scoparia) [5] = test: Test A1 preemergence, kochia; settings: 0 to 100 scale (0 no effect, 100 complete control)
In short: as §1

[6] = system: Oat, Wild (wild oat, Avena fatua); test: Test A1 preemergence, Oat, Wild; settings: 125 g ai/ha, 0 to 100 scale (0 no effect, 100 complete control)
In short: as §1

[7] = system: Pigweed, Palmer (palmer amaranth, palmer pigweed, Amaranthus palmeri); test: Test A1 preemergence, Pigweed, Palmer; settings: 125 g ai/ha, 0 to 100 scale (0 no effect, 100 complete control)
In short: as §1

[8] = system: ragweed (common ragweed, Ambrosia artemisiifolia); test: Test A1 preemergence, ragweed; settings: 125 g ai/ha, 0 to 100 scale (0 no effect, 100 complete control)
In short: as §1

[9] = system: Ryegrass, Italian (Italian ryegrass, Lolium multiflorum); test: Test A1 preemergence, Ryegrass, Italian; settings: 125 g ai/ha, 0 to 100 scale (0 no effect, 100 complete control)
In short: as §1

soybean (Glycine max) [10] = test: Test A1 preemergence, soybean; settings: 125 g ai/ha, 0 to 100 scale (0 no effect, 100 complete control)
In short: as §1

[11] = system: wheat (Triticum aestivum); test: Test A1 preemergence, wheat; settings: 125 g ai/ha, 0 to 100 scale (0 no effect, 100 complete control)
In short: as §1

[12] = system: blackgrass (Alopecurus myosuroides); test: Test A1 postemergence, blackgrass; settings: 0 to 100 scale (0 no effect, 100 complete control); for Blackgrass plant response rating: 31 g ai/ha, postemergence; for Plant response rating, Blackgrass: Postemergence, 125 g ai/ha, 10 days
In short: as §1

corn (Zea mays) [13] = test: Test A1 postemergence, corn; settings: 0 to 100 scale (0 no effect, 100 complete control); for Corn plant response rating: 31 g ai/ha, postemergence; for Plant response rating, Corn: Postemergence, 125 g ai/ha, 10 days
In short: as §1

[14] = system: Foxtail, Giant (giant foxtail, Setaria faberi); test: Test A1 postemergence, Foxtail, Giant; settings: 0 to 100 scale (0 no effect, 100 complete control); for Foxtail, Giant plant response rating: 31 g ai/ha, postemergence; for Plant response rating, Foxtail, Giant: Postemergence, 125 g ai/ha, 10 days
In short: as §1

[15] = system: goosegrass (Eleusine indica); test: Test A1 postemergence, goosegrass; settings: 0 to 100 scale (0 no effect, 100 complete control); for Goosegrass plant response rating: 31 g ai/ha, postemergence; for Plant response rating, Goosegrass: Postemergence, 125 g ai/ha, 10 days
In short: as §1

kochia (Bassia scoparia) [16] = test: Test A1 postemergence, kochia; settings: 0 to 100 scale (0 no effect, 100 complete control); for Kochia plant response rating: 31 g ai/ha, postemergence; for Plant response rating, Kochia: Postemergence, 125 g ai/ha, 10 days
In short: as §1

[17] = system: Oat, Wild (wild oat, Avena fatua); test: Test A1 postemergence, Oat, Wild; settings: 0 to 100 scale (0 no effect, 100 complete control); for Oat, Wild plant response rating: 31 g ai/ha, postemergence; for Plant response rating, Oat, Wild: Postemergence, 125 g ai/ha, 10 days
In short: as §2

[18] = system: Pigweed, Palmer (palmer amaranth, palmer pigweed, Amaranthus palmeri); test: Test A1 postemergence, Pigweed, Palmer; settings: 0 to 100 scale (0 no effect, 100 complete control); for Pigweed, Palmer plant response rating: 31 g ai/ha, postemergence; for Plant response rating, Pigweed, Palmer: Postemergence, 125 g ai/ha, 10 days
In short: as §2

[19] = system: ragweed (common ragweed, Ambrosia artemisiifolia); test: Test A1 postemergence, ragweed; settings: 0 to 100 scale (0 no effect, 100 complete control); for Ragweed plant response rating: 31 g ai/ha, postemergence; for Plant response rating, Ragweed: Postemergence, 125 g ai/ha, 10 days
In short: as §2

[20] = system: Ryegrass, Italian (Italian ryegrass, Lolium multiflorum); test: Test A1 postemergence, Ryegrass, Italian; settings: 0 to 100 scale (0 no effect, 100 complete control); for Ryegrass, Italian plant response rating: 31 g ai/ha, postemergence; for Plant response rating, Ryegrass, Italian: Postemergence, 125 g ai/ha, 10 days
In short: as §1

soybean (Glycine max) [21] = test: Test A1 postemergence, soybean; settings: 0 to 100 scale (0 no effect, 100 complete control); for Soybean plant response rating: 31 g ai/ha, postemergence; for Plant response rating, Soybean: Postemergence, 125 g ai/ha, 10 days
In short: as §1

[22] = system: wheat (Triticum aestivum); test: Test A1 postemergence, wheat; settings: 0 to 100 scale (0 no effect, 100 complete control); for Wheat plant response rating: 31 g ai/ha, postemergence; for Plant response rating, Wheat: Postemergence, 125 g ai/ha, 10 days
In short: as §1

[23] = system: galium (catchweed bedstraw, Galium aparine); test: Test A1 postemergence, galium; settings: 0 to 100 scale (0 no effect, 100 complete control); for Galium plant response rating: 31 g ai/ha, postemergence; for Plant response rating, Galium: Postemergence, 125 g ai/ha, 10 days
In short: as §1

[24] = system: horseweed (Erigeron canadensis); test: Test A1 postemergence, horseweed; settings: 0 to 100 scale (0 no effect, 100 complete control); for Horseweed plant response rating: 31 g ai/ha, postemergence; for Plant response rating, Horseweed: Postemergence, 125 g ai/ha, 10 days
In short: as §1

[25] = system: barnyardgrass (Echinochloa crus-galli); test: Test B1 flooded paddy test, barnyardgrass; settings: 250 g ai/ha, Flood, applied to paddy water, 2-leaf stage, visually evaluated after 10 to 14 days
From the text: (§3) A dash (-) response means no test result.

[26] = system: ducksalad (Heteranthera limosa); test: Test B1 flooded paddy test, ducksalad; settings: 250 g ai/ha, Flood, applied to paddy water, 2-leaf stage, visually evaluated after 10 to 14 days
From the text: as §3

rice (Oryza sativa) = test: Test B1 flooded paddy test, rice; settings: 250 g ai/ha, Flood, applied to paddy water, 2-leaf stage, visually evaluated after 10 to 14 days
From the text: as §3

[27] = 31 g ai/ha, 0 to 100 scale (0 no effect, 100 complete control)
[28] = 125 g ai/ha, 0 to 100 scale, 0 no effect, 100 complete control

## Cc1cc(C)c(N2Cc3cccc(C)c3C2=O)cc1NS(=O)(=O)Cl [Compound 408]
[1]; [27]
  Plant response rating, Blackgrass: 90
[1]; [28]
  Plant response rating, Blackgrass: 100
Corn (Zea mays) [2]; [27]
  Plant response rating, Corn: 40
Corn (Zea mays) [2]; [28]
  Plant response rating, Corn: 90
[3]; 31 g ai/ha
  Plant response rating, Foxtail, Giant: 100
[3]; 125 g ai/ha
  Plant response rating, Foxtail, Giant: 100
[4]; 31 g ai/ha
  Plant response rating, Goosegrass: 100
[4]; 125 g ai/ha
  Plant response rating, Goosegrass: 100
Kochia (Bassia scoparia) [5]; 31 g ai/ha
  Plant response rating, Kochia: 0
Kochia (Bassia scoparia) [5]; 125 g ai/ha
  Plant response rating, Kochia: 70
[6]
  Plant response rating, Oat, Wild: 100
[7]
  Plant response rating, Pigweed, Palmer: 60
[8]
  Plant response rating, Ragweed: 50
[9]
  Plant response rating, Ryegrass, Italian: 100
Soybean (Glycine max) [10]
  Plant response rating, Soybean: 50
[11]
  Plant response rating, Wheat: 100
[12]
  Blackgrass plant response rating: 80
  Plant response rating, Blackgrass: 90
Corn (Zea mays) [13]
  Corn plant response rating: 80
  Plant response rating, Corn: 80
[14]
  Foxtail, Giant plant response rating: 90
  Plant response rating, Foxtail, Giant: 90
[15]
  Goosegrass plant response rating: 90
  Plant response rating, Goosegrass: 90
Kochia (Bassia scoparia) [16]
  Kochia plant response rating: 60
  Plant response rating, Kochia: 60
[17]
  Oat, Wild plant response rating: 70
  Plant response rating, Oat, Wild: 70
[18]
  Pigweed, Palmer plant response rating: 30
  Plant response rating, Pigweed, Palmer: 50
[19]
  Ragweed plant response rating: 40
  Plant response rating, Ragweed: 90
[20]
  Ryegrass, Italian plant response rating: 70
  Plant response rating, Ryegrass, Italian: 80
Soybean (Glycine max) [21]
  Soybean plant response rating: 40
  Plant response rating, Soybean: 50
[22]
  Wheat plant response rating: 60
  Plant response rating, Wheat: 70
[23]
  Galium plant response rating: 90
  Plant response rating, Galium: 100
[24]
  Horseweed plant response rating: 20
  Plant response rating, Horseweed: 70
[25]
  Plant response rating, Barnyardgrass (0 to 100 scale, 0 is no effect, 100 is complete control): 98
[26]
  Plant response rating, Ducksalad (0 to 100 scale, 0 is no effect, 100 is complete control): 75
Rice (Oryza sativa)
  Plant response rating, Rice (0 to 100 scale, 0 is no effect, 100 is complete control): 65

## COc1cccc2c1C(=O)N(c1cc(N(COC(=O)C(C)(C)C)S(=O)(=O)Cl)c(C)cc1C)C2 [Compound 413]
[1]; [27]
  Plant response rating, Blackgrass: 20
[1]; [28]
  Plant response rating, Blackgrass: 20
Corn (Zea mays) [2]; [27]
  Plant response rating, Corn: 0
Corn (Zea mays) [2]; [28]
  Plant response rating, Corn: 10
[3]; 31 g ai/ha
  Plant response rating, Foxtail, Giant: 0
[3]; 125 g ai/ha
  Plant response rating, Foxtail, Giant: 10
[4]; 31 g ai/ha
  Plant response rating, Goosegrass: 50
[4]; 125 g ai/ha
  Plant response rating, Goosegrass: 80
Kochia (Bassia scoparia) [5]; 31 g ai/ha
  Plant response rating, Kochia: 70
Kochia (Bassia scoparia) [5]; 125 g ai/ha
  Plant response rating, Kochia: 90
[6]
  Plant response rating, Oat, Wild: 0
[7]
  Plant response rating, Pigweed, Palmer: 90
[8]
  Plant response rating, Ragweed: 90
[9]
  Plant response rating, Ryegrass, Italian: 20
Soybean (Glycine max) [10]
  Plant response rating, Soybean: 50
[11]
  Plant response rating, Wheat: 0
[12]
  Blackgrass plant response rating: 0
  Plant response rating, Blackgrass: 0
Corn (Zea mays) [13]
  Corn plant response rating: 30
  Plant response rating, Corn: 30
[14]
  Foxtail, Giant plant response rating: 0
  Plant response rating, Foxtail, Giant: 10
[15]
  Goosegrass plant response rating: 0
  Plant response rating, Goosegrass: 0
Kochia (Bassia scoparia) [16]
  Kochia plant response rating: 20
  Plant response rating, Kochia: 80
[17]
  Oat, Wild plant response rating: 0
  Plant response rating, Oat, Wild: 0
[18]
  Pigweed, Palmer plant response rating: 20
  Plant response rating, Pigweed, Palmer: 30
[19]
  Ragweed plant response rating: 60
  Plant response rating, Ragweed: 90
[20]
  Ryegrass, Italian plant response rating: 0
  Plant response rating, Ryegrass, Italian: 0
Soybean (Glycine max) [21]
  Soybean plant response rating: 80
  Plant response rating, Soybean: 80
[22]
  Wheat plant response rating: 0
  Plant response rating, Wheat: 0
[23]
  Galium plant response rating: 50
  Plant response rating, Galium: 100
[24]
  Horseweed plant response rating: 40
  Plant response rating, Horseweed: 90
[25]
  Plant response rating, Barnyardgrass (0 to 100 scale, 0 is no effect, 100 is complete control): 40
[26]
  Plant response rating, Ducksalad (0 to 100 scale, 0 is no effect, 100 is complete control): 80
Rice (Oryza sativa)
  Plant response rating, Rice (0 to 100 scale, 0 is no effect, 100 is complete control): 0
